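Compound exposure: 48 hours, 5 concentrations, 96-well plates. TGI: total growth inhibition.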
test system: ACHN renal; assay: NCI tumour cell line growth inhibition, 48 h

Row | Compound | TGI
1 | Cc1ccc(NCCN(C)C)c2c(=O)c3cc(O)ccc3oc12 | 17.6 µM
2 | O=C1c2ccccc2C(=O)N1CCCC(=O)n1cc(F)c(=O)[nH]c1=O | > 100 µM

test system: MOLT-4 leukemia; assay: NCI tumour cell line growth inhibition, 48 h

Row | Compound | TGI
3 | N#C/C(=C\Nc1ccccn1)C(=O)C1CC1 | > 100 µM
4 | Cc1ccc(NCCN(C)C)c2c(=O)c3cc(O)ccc3oc12 | 11.7 µM
5 | O=C1c2ccccc2C(=O)N1CCCC(=O)n1cc(F)c(=O)[nH]c1=O | > 100 µM

test system: SK-MEL-28 melanoma; assay: NCI tumour cell line growth inhibition, 48 h

Row | Compound | TGI
6 | N#C/C(=C\Nc1ccccn1)C(=O)C1CC1 | > 100 µM
7 | Cc1ccc(NCCN(C)C)c2c(=O)c3cc(O)ccc3oc12 | 28.4 µM
8 | O=C1c2ccccc2C(=O)N1CCCC(=O)n1cc(F)c(=O)[nH]c1=O | > 100 µM

test system: HCT-116 colon; assay: NCI tumour cell line growth inhibition, 48 h

Row | Compound | TGI
9 | N#C/C(=C\Nc1ccccn1)C(=O)C1CC1 | > 100 µM
10 | Cc1ccc(NCCN(C)C)c2c(=O)c3cc(O)ccc3oc12 | 17.2 µM
11 | O=C1c2ccccc2C(=O)N1CCCC(=O)n1cc(F)c(=O)[nH]c1=O | > 100 µM

test system: T-47D breast; assay: NCI tumour cell line growth inhibition, 48 h

Row | Compound | TGI
12 | N#C/C(=C\Nc1ccccn1)C(=O)C1CC1 | > 100 µM
13 | Cc1ccc(NCCN(C)C)c2c(=O)c3cc(O)ccc3oc12 | 31.5 µM
14 | O=C1c2ccccc2C(=O)N1CCCC(=O)n1cc(F)c(=O)[nH]c1=O | > 100 µM

test system: NCI-H23 lung; assay: NCI tumour cell line growth inhibition, 48 h

Row | Compound | TGI
15 | N#C/C(=C\Nc1ccccn1)C(=O)C1CC1 | > 100 µM
16 | Cc1ccc(NCCN(C)C)c2c(=O)c3cc(O)ccc3oc12 | 25.6 µM
17 | O=C1c2ccccc2C(=O)N1CCCC(=O)n1cc(F)c(=O)[nH]c1=O | > 100 µM

test system: SF-539 CNS; assay: NCI tumour cell line growth inhibition, 48 h

Row | Compound | TGI
18 | N#C/C(=C\Nc1ccccn1)C(=O)C1CC1 | > 100 µM
19 | Cc1ccc(NCCN(C)C)c2c(=O)c3cc(O)ccc3oc12 | 20.5 µM
20 | O=C1c2ccccc2C(=O)N1CCCC(=O)n1cc(F)c(=O)[nH]c1=O | > 100 µM

test system: DU-145 prostate; assay: NCI tumour cell line growth inhibition, 48 h

Row | Compound | TGI
21 | N#C/C(=C\Nc1ccccn1)C(=O)C1CC1 | > 100 µM
22 | Cc1ccc(NCCN(C)C)c2c(=O)c3cc(O)ccc3oc12 | 28.3 µM
23 | O=C1c2ccccc2C(=O)N1CCCC(=O)n1cc(F)c(=O)[nH]c1=O | > 100 µM

test system: UO-31 renal; assay: NCI tumour cell line growth inhibition, 48 h

Row | Compound | TGI
24 | N#C/C(=C\Nc1ccccn1)C(=O)C1CC1 | > 100 µM
25 | Cc1ccc(NCCN(C)C)c2c(=O)c3cc(O)ccc3oc12 | 22.1 µM
26 | O=C1c2ccccc2C(=O)N1CCCC(=O)n1cc(F)c(=O)[nH]c1=O | > 100 µM

test system: HL-60(TB) leukemia; assay: NCI tumour cell line growth inhibition, 48 h

Row | Compound | TGI
27 | N#C/C(=C\Nc1ccccn1)C(=O)C1CC1 | > 100 µM
28 | Cc1ccc(NCCN(C)C)c2c(=O)c3cc(O)ccc3oc12 | 19.4 µM
29 | O=C1c2ccccc2C(=O)N1CCCC(=O)n1cc(F)c(=O)[nH]c1=O | > 100 µM

test system: LOX IMVI melanoma; assay: NCI tumour cell line growth inhibition, 48 h

Row | Compound | TGI
30 | N#C/C(=C\Nc1ccccn1)C(=O)C1CC1 | > 100 µM
31 | Cc1ccc(NCCN(C)C)c2c(=O)c3cc(O)ccc3oc12 | 22.2 µM
32 | O=C1c2ccccc2C(=O)N1CCCC(=O)n1cc(F)c(=O)[nH]c1=O | > 100 µM

test system: SN12C renal; assay: NCI tumour cell line growth inhibition, 48 h

Row | Compound | TGI
33 | N#C/C(=C\Nc1ccccn1)C(=O)C1CC1 | > 100 µM
34 | Cc1ccc(NCCN(C)C)c2c(=O)c3cc(O)ccc3oc12 | 20.2 µM
35 | O=C1c2ccccc2C(=O)N1CCCC(=O)n1cc(F)c(=O)[nH]c1=O | > 100 µM

test system: TK-10 renal; assay: NCI tumour cell line growth inhibition, 48 h

Row | Compound | TGI
36 | N#C/C(=C\Nc1ccccn1)C(=O)C1CC1 | > 100 µM
37 | Cc1ccc(NCCN(C)C)c2c(=O)c3cc(O)ccc3oc12 | 27.9 µM
38 | O=C1c2ccccc2C(=O)N1CCCC(=O)n1cc(F)c(=O)[nH]c1=O | > 100 µM

test system: A498 renal; assay: NCI tumour cell line growth inhibition, 48 h

Row | Compound | TGI
39 | N#C/C(=C\Nc1ccccn1)C(=O)C1CC1 | > 100 µM
40 | Cc1ccc(NCCN(C)C)c2c(=O)c3cc(O)ccc3oc12 | 28.2 µM
41 | O=C1c2ccccc2C(=O)N1CCCC(=O)n1cc(F)c(=O)[nH]c1=O | > 100 µM

test system: SF-268 CNS; assay: NCI tumour cell line growth inhibition, 48 h

Row | Compound | TGI
42 | N#C/C(=C\Nc1ccccn1)C(=O)C1CC1 | > 100 µM
43 | Cc1ccc(NCCN(C)C)c2c(=O)c3cc(O)ccc3oc12 | 17.7 µM
44 | O=C1c2ccccc2C(=O)N1CCCC(=O)n1cc(F)c(=O)[nH]c1=O | > 100 µM

test system: RPMI-8226 leukemia; assay: NCI tumour cell line growth inhibition, 48 h

Row | Compound | TGI
45 | N#C/C(=C\Nc1ccccn1)C(=O)C1CC1 | > 100 µM
46 | Cc1ccc(NCCN(C)C)c2c(=O)c3cc(O)ccc3oc12 | 34.3 µM
47 | O=C1c2ccccc2C(=O)N1CCCC(=O)n1cc(F)c(=O)[nH]c1=O | > 77.5 µM

test system: K-562 leukemia; assay: NCI tumour cell line growth inhibition, 48 h

Row | Compound | TGI
48 | N#C/C(=C\Nc1ccccn1)C(=O)C1CC1 | > 100 µM
49 | Cc1ccc(NCCN(C)C)c2c(=O)c3cc(O)ccc3oc12 | 12.3 µM
50 | O=C1c2ccccc2C(=O)N1CCCC(=O)n1cc(F)c(=O)[nH]c1=O | > 100 µM

test system: U251 CNS; assay: NCI tumour cell line growth inhibition, 48 h

Row | Compound | TGI
51 | N#C/C(=C\Nc1ccccn1)C(=O)C1CC1 | > 100 µM
52 | Cc1ccc(NCCN(C)C)c2c(=O)c3cc(O)ccc3oc12 | 21 µM
53 | O=C1c2ccccc2C(=O)N1CCCC(=O)n1cc(F)c(=O)[nH]c1=O | > 100 µM

test system: OVCAR-4 ovarian; assay: NCI tumour cell line growth inhibition, 48 h

Row | Compound | TGI
54 | N#C/C(=C\Nc1ccccn1)C(=O)C1CC1 | > 100 µM
55 | Cc1ccc(NCCN(C)C)c2c(=O)c3cc(O)ccc3oc12 | 31.3 µM
56 | O=C1c2ccccc2C(=O)N1CCCC(=O)n1cc(F)c(=O)[nH]c1=O | > 100 µM

test system: RXF 393 renal; assay: NCI tumour cell line growth inhibition, 48 h

Row | Compound | TGI
57 | N#C/C(=C\Nc1ccccn1)C(=O)C1CC1 | > 100 µM
58 | Cc1ccc(NCCN(C)C)c2c(=O)c3cc(O)ccc3oc12 | 24.4 µM
59 | O=C1c2ccccc2C(=O)N1CCCC(=O)n1cc(F)c(=O)[nH]c1=O | > 100 µM

test system: KM12 colon; assay: NCI tumour cell line growth inhibition, 48 h

Row | Compound | TGI
60 | N#C/C(=C\Nc1ccccn1)C(=O)C1CC1 | > 100 µM
61 | Cc1ccc(NCCN(C)C)c2c(=O)c3cc(O)ccc3oc12 | 25 µM
62 | O=C1c2ccccc2C(=O)N1CCCC(=O)n1cc(F)c(=O)[nH]c1=O | > 100 µM

test system: CAKI-1 renal; assay: NCI tumour cell line growth inhibition, 48 h

Row | Compound | TGI
63 | N#C/C(=C\Nc1ccccn1)C(=O)C1CC1 | > 100 µM
64 | Cc1ccc(NCCN(C)C)c2c(=O)c3cc(O)ccc3oc12 | 22.9 µM
65 | O=C1c2ccccc2C(=O)N1CCCC(=O)n1cc(F)c(=O)[nH]c1=O | > 100 µM

test system: SF-295 CNS; assay: NCI tumour cell line growth inhibition, 48 h

Row | Compound | TGI
66 | N#C/C(=C\Nc1ccccn1)C(=O)C1CC1 | > 100 µM
67 | Cc1ccc(NCCN(C)C)c2c(=O)c3cc(O)ccc3oc12 | 23 µM
68 | O=C1c2ccccc2C(=O)N1CCCC(=O)n1cc(F)c(=O)[nH]c1=O | > 100 µM

test system: NCI-H460 lung; assay: NCI tumour cell line growth inhibition, 48 h

Row | Compound | TGI
69 | N#C/C(=C\Nc1ccccn1)C(=O)C1CC1 | > 100 µM
70 | Cc1ccc(NCCN(C)C)c2c(=O)c3cc(O)ccc3oc12 | 15 µM
71 | O=C1c2ccccc2C(=O)N1CCCC(=O)n1cc(F)c(=O)[nH]c1=O | > 100 µM

test system: HOP-62 NSCLC; assay: NCI tumour cell line growth inhibition, 48 h

Row | Compound | TGI
72 | N#C/C(=C\Nc1ccccn1)C(=O)C1CC1 | > 100 µM
73 | Cc1ccc(NCCN(C)C)c2c(=O)c3cc(O)ccc3oc12 | 23.3 µM
74 | O=C1c2ccccc2C(=O)N1CCCC(=O)n1cc(F)c(=O)[nH]c1=O | > 24.6 µM

test system: 786-0 renal; assay: NCI tumour cell line growth inhibition, 48 h

Row | Compound | TGI
75 | N#C/C(=C\Nc1ccccn1)C(=O)C1CC1 | > 100 µM
76 | Cc1ccc(NCCN(C)C)c2c(=O)c3cc(O)ccc3oc12 | 18.3 µM
77 | O=C1c2ccccc2C(=O)N1CCCC(=O)n1cc(F)c(=O)[nH]c1=O | > 100 µM

test system: SNB-19 CNS; assay: NCI tumour cell line growth inhibition, 48 h

Row | Compound | TGI
78 | N#C/C(=C\Nc1ccccn1)C(=O)C1CC1 | > 100 µM
79 | Cc1ccc(NCCN(C)C)c2c(=O)c3cc(O)ccc3oc12 | 23.7 µM
80 | O=C1c2ccccc2C(=O)N1CCCC(=O)n1cc(F)c(=O)[nH]c1=O | > 100 µM

test system: MDA-MB-231 breast; assay: NCI tumour cell line growth inhibition, 48 h

Row | Compound | TGI
81 | N#C/C(=C\Nc1ccccn1)C(=O)C1CC1 | > 100 µM
82 | Cc1ccc(NCCN(C)C)c2c(=O)c3cc(O)ccc3oc12 | 22.2 µM
83 | O=C1c2ccccc2C(=O)N1CCCC(=O)n1cc(F)c(=O)[nH]c1=O | > 100 µM

test system: SNB-75 CNS; assay: NCI tumour cell line growth inhibition, 48 h

Row | Compound | TGI
84 | N#C/C(=C\Nc1ccccn1)C(=O)C1CC1 | > 100 µM
85 | Cc1ccc(NCCN(C)C)c2c(=O)c3cc(O)ccc3oc12 | 16 µM
86 | O=C1c2ccccc2C(=O)N1CCCC(=O)n1cc(F)c(=O)[nH]c1=O | > 100 µM

test system: NCI-H522 lung; assay: NCI tumour cell line growth inhibition, 48 h

Row | Compound | TGI
87 | N#C/C(=C\Nc1ccccn1)C(=O)C1CC1 | > 100 µM
88 | Cc1ccc(NCCN(C)C)c2c(=O)c3cc(O)ccc3oc12 | 21.7 µM
89 | O=C1c2ccccc2C(=O)N1CCCC(=O)n1cc(F)c(=O)[nH]c1=O | > 100 µM

— PubChem BioAssay (NCI)
